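Cells were grown in 96-well plates and exposed to each compound for 48 hours at five concentrations; endpoints were interpolated linearly between bracketing concentrations, or set to the highest concentration if not reached. The concentration for full growth arrest is given as TGI.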

Test systems include HOP-62 NSCLC; SK-MEL-2 melanoma; DU-145 prostate; MDA-N; SN12C renal; T-47D breast; 786-0 renal; KM12 colon; MDA-MB-231 breast; PC-3 prostate; M14 melanoma; UO-31 renal; UACC-62 melanoma; OVCAR-4 ovarian; NCI-H23 lung; RPMI-8226 leukemia; UACC-257 melanoma; NCI-H522 lung; SF-295 CNS; SR leukemia.
Assay in all cases: inhibition of tumour cell growth, NCI panel, 48 h

Take `C[Si](C)(C)CCOCN(C(=O)C1=CCC2(CC1)OCCO2)c1ccccc1I`: the TGI in the assay on HOP-62 NSCLC was 42.1 µM; in the assay with SK-MEL-2 melanoma, 32.6 µM; in the assay on DU-145 prostate, above 100 µM; in the assay with MDA-N, 59.1 µM; in the assay with SN12C renal it was 70.9 µM; in the assay with T-47D breast, above 100 µM. Further, the TGI with 786-0 renal was 39.8 µM; with KM12 colon, 38.3 µM; in the assay with MDA-MB-231 breast, 56.6 µM; in the assay with PC-3 prostate it was 27 µM; in the assay with M14 melanoma, 39.5 µM; with UO-31 renal it was 38.9 µM. The TGI with UACC-62 melanoma came out at 41.3 µM; in the assay on OVCAR-4 ovarian it was 45.5 µM; in the assay with NCI-H23 lung, 39 µM; in the assay on RPMI-8226 leukemia, 52.2 µM; with UACC-257 melanoma, 54.3 µM; in the assay with NCI-H522 lung, 38.7 µM. The TGI was 32 µM in the assay on SF-295 CNS and above 100 µM with SR leukemia.
Regarding `CC(O)C1(O)C(O)CC(OC2c3cc4c(c(O)c3[C@@H]3C[C@@]2(C)OC32C=c3cc[nH]c3=N2)C(=O)c2cccc(O)c2C4=O)OC1C` (stereo not given in full), the TGI is 5.37 µM in the assay on HOP-62 NSCLC; 3.11 µM in the assay with SK-MEL-2 melanoma; 8.8 µM in the assay on DU-145 prostate; 3.41 µM in the assay on MDA-N; 1.13 µM with SN12C renal; 9.07 µM with T-47D breast. For the same molecule, the TGI with 786-0 renal stood at 4.98 µM; in the assay with KM12 colon it was 3.77 µM; in the assay on MDA-MB-231 breast, 3.89 µM; in the assay with PC-3 prostate, 4.86 µM; in the assay with M14 melanoma, 2.73 µM; with UO-31 renal it was 8.44 µM. Also, the TGI in the assay with UACC-62 melanoma stood at 3.18 µM; in the assay with OVCAR-4 ovarian, 7.2 µM; with NCI-H23 lung, 3.81 µM; in the assay with RPMI-8226 leukemia it was 4.88 µM; in the assay on UACC-257 melanoma, 3.12 µM; with NCI-H522 lung it was 1.09 µM. In addition, the TGI with SF-295 CNS stood at 5.73 µM; in the assay with SR leukemia, 2.36 µM.
As for `O=C(Cn1c2ccc(Br)cc2c2nc3ccccc3nc21)NNC(=O)NC1CCCCC1`, the TGI in the assay with HOP-62 NSCLC is 78.8 µM; with SK-MEL-2 melanoma it was above 100 µM; in the assay with DU-145 prostate, 86 µM; in the assay with MDA-N it was above 100 µM; in the assay with SN12C renal, above 100 µM; with T-47D breast it was above 100 µM. Besides, the TGI in the assay on 786-0 renal is above 100 µM; in the assay with KM12 colon, above 100 µM; in the assay on MDA-MB-231 breast, above 100 µM; in the assay with PC-3 prostate it was above 100 µM; in the assay on M14 melanoma it was above 100 µM; with UO-31 renal, 8.09 µM. Also, the TGI in the assay on UACC-62 melanoma is above 100 µM; in the assay with OVCAR-4 ovarian it was 42.9 µM; in the assay on NCI-H23 lung, above 100 µM; in the assay on RPMI-8226 leukemia it was above 100 µM; in the assay on UACC-257 melanoma, above 100 µM; in the assay on NCI-H522 lung, above 100 µM. Besides, the TGI with SF-295 CNS and in the assay with SR leukemia was above 100 µM each time.
As to `COC1=CC(=O)C2=C(C1=O)[C@H]1CC[C@]3(C)C(=O)CC[C@H]3[C@@H]1CC2`, the TGI is above 100 µM in the assay with HOP-62 NSCLC; 36.3 µM with SK-MEL-2 melanoma; 57.1 µM in the assay on DU-145 prostate; 65.1 µM in the assay on MDA-N; 44.5 µM in the assay on SN12C renal; 57.2 µM in the assay with T-47D breast. For the same molecule, the TGI is 53.2 µM in the assay on 786-0 renal; above 100 µM with KM12 colon; 16.9 µM with MDA-MB-231 breast; 85.2 µM in the assay on PC-3 prostate; above 100 µM with M14 melanoma; 56.8 µM with UO-31 renal. The TGI in the assay with UACC-62 melanoma was above 100 µM; with OVCAR-4 ovarian, 29.5 µM; with NCI-H23 lung, above 100 µM; with RPMI-8226 leukemia, 81.3 µM; in the assay with UACC-257 melanoma it was 58.7 µM; in the assay with NCI-H522 lung, 59.8 µM. Further, the TGI in the assay on SF-295 CNS and in the assay on SR leukemia was above 100 µM each time.
As for `O=C(CNc1ccc([N+](=O)[O-])cc1)Nn1c(-c2ccccc2)nc2ccccc2c1=O`, the TGI with HOP-62 NSCLC worked out at 16.5 µM; in the assay with SK-MEL-2 melanoma, 8.37 µM; in the assay on DU-145 prostate, 23.3 µM; in the assay on MDA-N, 13.8 µM; in the assay on SN12C renal, 5.19 µM; with T-47D breast it was 9.63 µM. The TGI in the assay on 786-0 renal worked out at 6.26 µM; with KM12 colon, 15.9 µM; in the assay on MDA-MB-231 breast it was 9.4 µM; with PC-3 prostate it was 13.2 µM; in the assay on M14 melanoma it was 8.59 µM; in the assay on UO-31 renal, 14.1 µM. In addition, the TGI with UACC-62 melanoma was determined as 2.19 µM; in the assay on OVCAR-4 ovarian it was 10.3 µM; with NCI-H23 lung, 7.13 µM; in the assay on RPMI-8226 leukemia, 14.8 µM; with UACC-257 melanoma it was 36.7 µM; with NCI-H522 lung, 4.79 µM. The TGI was 29.8 µM in the assay with SF-295 CNS and above 37.4 µM in the assay with SR leukemia.
With `CC(=O)n1nc(-c2[nH]c(C)c(-c3nn(C(C)=O)c(=S)o3)c2C)oc1=S`, the TGI with HOP-62 NSCLC, in the assay on SK-MEL-2 melanoma, with DU-145 prostate, with MDA-N, in the assay with SN12C renal and in the assay with T-47D breast was above 100 µM throughout. Besides, the TGI in the assay with 786-0 renal, in the assay on KM12 colon, with MDA-MB-231 breast, with PC-3 prostate, in the assay with M14 melanoma and in the assay with UO-31 renal was above 100 µM in each case. Moreover, the TGI in the assay with UACC-62 melanoma, in the assay with OVCAR-4 ovarian, in the assay on NCI-H23 lung, in the assay on RPMI-8226 leukemia, in the assay with UACC-257 melanoma and in the assay with NCI-H522 lung was above 100 µM each time. The TGI in the assay with SF-295 CNS and in the assay on SR leukemia was above 100 µM throughout.
On to `C=CC(=O)C#Cc1cnc(OC)nc1OC`, for which the TGI with HOP-62 NSCLC was 45.7 µM; in the assay on SK-MEL-2 melanoma, 59.7 µM; in the assay with DU-145 prostate it was above 100 µM; in the assay with MDA-N it was 40.5 µM; with SN12C renal, 37.7 µM; with T-47D breast, 55.8 µM. Moreover, the TGI in the assay with 786-0 renal came to 12.6 µM; with KM12 colon it was 30 µM; in the assay with MDA-MB-231 breast it was 38.1 µM; in the assay with PC-3 prostate, 42 µM; with M14 melanoma, 37.7 µM; in the assay on UO-31 renal, 33.5 µM. Further, the TGI with UACC-62 melanoma is 34.4 µM; in the assay with OVCAR-4 ovarian it was 42.3 µM; with NCI-H23 lung, 37.6 µM; in the assay on RPMI-8226 leukemia, 6.93 µM; in the assay on UACC-257 melanoma it was 20.3 µM; with NCI-H522 lung, 42.7 µM. In addition, the figures for the TGI in the assay on SF-295 CNS and in the assay on SR leukemia were above 100 µM and 6.15 µM, respectively.
As for `COC(=O)NCCc1[nH]nc2c1C(=O)C=C(Nc1ccccc1OC)C2=O`, the TGI was above 100 µM in the assay on HOP-62 NSCLC; above 100 µM in the assay with SK-MEL-2 melanoma; above 100 µM in the assay with DU-145 prostate; 35.1 µM with MDA-N; above 100 µM in the assay with SN12C renal; above 100 µM with T-47D breast. In addition, the TGI in the assay on 786-0 renal was above 100 µM; in the assay on KM12 colon, 64.4 µM; in the assay with MDA-MB-231 breast, 94.3 µM; with PC-3 prostate it was above 100 µM; with M14 melanoma it was 62.9 µM; in the assay with UO-31 renal it was above 100 µM. Also, the TGI was 39.9 µM in the assay with UACC-62 melanoma; 57.7 µM in the assay with OVCAR-4 ovarian; 32.7 µM with NCI-H23 lung; above 100 µM with RPMI-8226 leukemia; 35.6 µM with UACC-257 melanoma; 78.2 µM with NCI-H522 lung. The figures for the TGI in the assay on SF-295 CNS and in the assay with SR leukemia were above 100 µM and 86.1 µM, respectively.
On to `C[C@H]1[C@H]2[C@H](C[C@@]3(C)C4=CC[C@H]5C(C)(C)[C@@H](OC6OCC(O)C(O)C6O)CC[C@@]56C[C@@]46CC[C@]23C)O[C@@]2(O)[C@@H]1OC(C)(C)[C@H]2O` (stereo not given in full), for which the TGI amounted to 5.7 µM in the assay on HOP-62 NSCLC; 11.5 µM in the assay with SK-MEL-2 melanoma; 1.91 µM in the assay with DU-145 prostate; 7.48 µM in the assay on MDA-N; 2.75 µM in the assay on SN12C renal; 1.81 µM in the assay on T-47D breast. Also, the TGI turned out to be 2.76 µM in the assay on 786-0 renal; 4.12 µM with KM12 colon; 6.9 µM with MDA-MB-231 breast; 2.32 µM with PC-3 prostate; 10.7 µM with M14 melanoma; 10.2 µM with UO-31 renal. The TGI in the assay with UACC-62 melanoma stood at 5.32 µM; in the assay with OVCAR-4 ovarian it was 7.17 µM; with NCI-H23 lung, 3.31 µM; in the assay with RPMI-8226 leukemia it was 4.68 µM; in the assay with UACC-257 melanoma, 4.7 µM; in the assay with NCI-H522 lung, 2.42 µM. Further, the TGI came out at 6.47 µM in the assay on SF-295 CNS and 9.01 µM with SR leukemia.
